Assay: gradient 5% acetonitrile 3 min, to 50% in 2 min, to 85% in 15 min, held 3 min, 100 µL/min
Conditions: column: Zorbax Extend-C18 2.1 x 50 mm; eluents: water / acetonitrile, 0.1% formic acid
Procedure, shortened: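 Retention times of pure standards were taken from adduct peaks that were selected by computer and manually inspected. Over 3 months, mixtures of ~100 molecules were run by HPLC–quadrupole time-of-flight mass spectrometry in positive and negative ionization mode. The Zorbax Extend-C18 column (2.1 × 50 mm, 1.8 μm) ran at 100 μL/min in water and acetonitrile, each containing 0.1% formic acid, with 40 μL dead volume and 900 μL dwell volume.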

SMILES | RP-LC retention time [s]
O=C(NCCSc1ncc(-c2ccccc2)[nH]1)NCc1cccs1 | 596
c1cc(OCc2ccc(CC3CCN(C4CCOCC4)CC3)cc2)ccn1 | 548
CN1CCC(OC2CCN(C(=O)CC3CCCC3)CC2)CC1 | 596
O=C1NC2(CCN(C(=O)c3cccc(F)c3)CC2)N=C1c1cccc(F)c1 | 821
CN1C(=O)c2cccnc2Sc2cc(NC(=O)c3cccc(F)c3)ccc21 | 790
Cc1ccccc1-n1nc2c(c1NC(=O)CSCc1ccccc1)CSC2 | 907
CN1C(=O)c2ccccc2Oc2ccc(C(=O)N3CCCCC3)cc21 | 807
c1ccc(CC2CCN(Cc3nc(-c4ccc(N5CCOCC5)nc4)no3)CC2)cc1 | 716
N#C/C(=C\c1ccc(-c2cc(Cl)ccc2Cl)o1)C(=O)Nc1cccc2ncccc12 | 1110
CCCc1cc(N2CCN(C(=O)c3cccc(N(C)C)c3)CC2)nc2nnc(C)n12 | 606
CCC(=O)N1CCc2sc(C(=O)N3CCN(c4ccccc4)CC3)cc2C1 | 794
CCOc1ccc(-c2ccc(N3CCN(C(=O)c4ccc5ncsc5c4)CC3)nn2)cc1 | 629
Cc1ccnc(Nc2nc(-c3ccccc3)cs2)c1 | 790
COc1ccc2[nH]cc(CCN3CC(C(=O)N4CCc5ccccc54)CC3=O)c2c1 (stereo not given) | 802
Cc1cc(N2CCN(C(=O)Nc3cccc(Cl)c3)CC2)nc(N2CCOCC2)n1 | 672
COc1ccc(Cc2nc3nccc(-c4ccc(F)cc4OC)n3n2)cc1 | 871
CC1CCCN(Cc2nc(Cn3ccn4nc(-c5ccc(F)cc5)cc4c3=O)no2)C1 (stereo not given) | 687
NS(=O)(=O)c1ccc(CCNC(=O)c2cccc(-n3cnnn3)c2)cc1 | 617
O=c1ccc(S(=O)(=O)N2CCCCCC2)cn1Cc1cccc(F)c1 | 944
CN(C)S(=O)(=O)c1ccc(-c2nnc(C(=O)NCCCN3CCCC3)o2)cc1 | 593
COc1cccc(CNC(=O)CN2CCN(Cc3ccc(F)cc3)C2=O)c1OC | 772

SMILES | RP-LC retention time [s]
COc1ccc(C2CC(=O)c3c(C)nc(N4CCN(c5ccccn5)CC4)nc3C2)c(OC)c1 (stereo not given) | 765
COCCNC(=O)C(C)n1c(=O)c(C(F)(F)F)nc2cc(C)c(C)cc21 (stereo not given) | 986
COc1ccc(Cl)cc1S(=O)(=O)N1C[C@@H]2C[C@H]1C[C@@H]2NC(=O)c1ccccc1 | 873
Cc1ccccc1Cn1cc(-c2ccncc2)cc1C(=O)N1CCN(C2CCCCC2)CC1 | 586
CCCOc1nc2c(c(=O)n(C)c(=O)n2C)n1C | 788
O=C(Cn1nc2nc(Nc3ccc(F)cc3)ccn2c1=O)Nc1ccccc1F | 754
CCc1nc(OCC(=O)Nc2ccc(Cl)cc2C(F)(F)F)c2ccccc2n1 | 942
O=C(c1cccc(F)c1)N1CCC2(CC1)N=C(c1ccccc1)NO2 | 739
Cc1nsc2ncc(C(=O)N3CCOCC3)c(N3CCC(C(=O)Nc4ccccc4F)CC3)c12 | 758
COc1cccc(C(=O)N2C[C@@H]3C[C@H](NC(=O)c4ccccc4)[C@H]2C3)c1OC | 682
O=S(=O)(c1ccccc1C(F)(F)F)N1CCc2nc(-c3ccc(F)cc3)ncc2C1 | 1150
Cc1ccc(N2CCC(NC(=O)c3ccccc3)C2=O)cc1C (stereo not given) | 862
O=C(c1c(F)cccc1F)N1CCN(S(=O)(=O)C2CC2)CC1 | 691
COc1ccc(NC(=O)Cn2nc3nc(N4CCOCC4)ccn3c2=O)cc1F | 602
O=C(NCc1ccncc1)C1CCN(c2ncnc3c2oc2ccccc23)CC1 | 593
CSc1ccc(NC(=O)NC2CCN(c3ccc(F)cc3)C2=O)cc1 (stereo not given) | 847
O=C(O)c1cccc(Nc2c(-c3ccc(F)cc3)nc3cnccn23)c1 | 702
CCc1nn2c(CNC(=O)c3ccc(Cl)cc3)c(-c3ccccc3)nc2s1 | 974
O=C(Cn1ccnc1-c1ccnc(N2CCCC2)c1)NCc1ccccc1Cl | 606
COc1ccc(OC)c(NC(=O)N2CCCC(Cn3cnc4cccnc43)C2)c1 (stereo not given) | 682
CCOC(=O)C1CCN(C(=O)c2cn3c(n2)CCCC3)CC1 | 586

SMILES | RP-LC retention time [s]
CCc1ccc(CNC(=O)Cn2ccc3ccc(N4CCOCC4)nc32)cc1 | 969
CCCN1C(=O)C(CC(=O)NCC(C)C)Sc2ncccc21 (stereo not given) | 741
O=C(Cn1c(=O)c2nncn2c2ncccc21)NCc1cc(F)ccc1F | 654
CCSc1nnc(NC(=O)CSc2nnnn2-c2ccccc2CC)s1 | 887
Cc1ccc(C2Cn3nnc(C(=O)N4CCN(C(=O)c5ccoc5)CC4)c3CO2)cc1 (stereo not given) | 815
CCn1c(=O)n(CC(=O)NCCN2CCCCC2C)c(=O)c2cnc(-c3ccc(Cl)cc3)nc21 (stereo not given) | 751
CCOC(=O)C1CCN(c2ncnc3c2cnn3-c2ccc(OC)cc2)CC1 | 952
Cc1nnc(NC(=O)CCc2csc(NC(=O)NC3CCCCC3)n2)s1 | 682
Cc1ccc(-c2cc(C(F)(F)F)n3nc(C(=O)O)cc3n2)cc1 | 943
O=C(c1cc(-c2ccccn2)n[nH]1)N1CCN(C(=O)C2CCC2)CC1 | 612
CCCNC(=O)c1sc(Nc2cccc(C)n2)nc1C | 697
COc1ccc(NC(=O)N2CCCC2C(=O)Nc2ccc(C)c(Cl)c2)cc1 (stereo not given) | 880
O=C(CN1C(=O)c2ccccc2C1=O)NCCS(=O)(=O)N1CCc2ccccc2C1 | 744
O=C(COc1ccccc1[N+](=O)[O-])Nc1nc2c(s1)CCc1ccccc1-2 | 1030
Oc1ccc(-c2csc(Nc3ccccn3)n2)cc1 | 646
CCn1c(C(=O)NCCCN2CCOCC2)cc2c(-c3cccs3)nn(-c3ccccc3)c21 | 705
CCCCN1N=C(C(=O)N2CCOCC2)S(=O)(=O)c2ccc(Cl)cc21 | 889
CS(=O)(=O)Nc1nc2ccccc2[nH]1 | 645
COc1ccc2c(c1)C=C(C(=O)NCCc1ccccc1)C=CO2 | 959

Further lines, results first:

RP-LC retention time [s] | SMILES
698 | CC(C)Cn1c(CCNC(=O)c2ccccc2F)nc2cccnc21
1050 | Cc1cc(C)cc(-c2nc(C3CC(=O)N(c4ccc(F)c(Cl)c4)C3)no2)c1 (stereo not given)
988 | CCOC(=O)c1noc2ncnc(N(C)Cc3ccccc3)c12
805 | Cc1nnc2ccc(-c3noc(Cc4ccc(F)cc4)n3)cn12
800 | COc1ccc(NC(=O)NC2CCN(c3ccc(C)c(C)c3)C2=O)cc1F (stereo not given)
902 | CC1(C(=O)NCc2cccc(F)c2)CCCN(S(=O)(=O)c2ccccc2)C1 (stereo not given)
880 | Cc1ccc(NS(=O)(=O)c2cc3c4c(c2)CCC(=O)N4CCC3)cc1C
990 | COC(=O)COc1cc(O)c2c(=O)cc(-c3ccccc3)oc2c1
952 | NS(=O)(=O)c1ccc(CCNS(=O)(=O)c2cccc(-c3nc(-c4ccccc4)no3)c2)cc1
641 | COc1ccc(OC)c(NC(=O)Cn2cnc3cc4c(cc32)OCCO4)c1
998 | Cc1sc(-c2nnc(C3CC3)o2)cc1NC(=O)C(C)c1ccccc1 (stereo not given)
684 | Cc1nn(C(C)C(=O)N2CCOCC2)c(=O)c2nn(-c3ccccc3)c(C)c12 (stereo not given)
1230 | Cc1cccc(-c2noc(Cn3c(=O)n(Cc4cccc(Cl)c4)c(=O)c4sccc43)n2)c1
954 | COCCCn1c(=O)c2ccccc2n(Cc2nc(-c3ccc4c(c3)OCO4)no2)c1=O
543 | CC(C)CC(=O)N1CCCn2nc(-c3ccncc3)cc2C1
1060 | Cc1nc(-c2csc(S(=O)(=O)N3CCCC(C(=O)Nc4c(C)cccc4C)C3)c2)no1 (stereo not given)
958 | CCCS(=O)(=O)c1nc2ccc(NS(=O)(=O)c3cc(C)ccc3C)cc2s1
942 | CCNS(=O)(=O)c1cccnc1Nc1ccc(F)cc1
1080 | Cc1ccc(NC(=O)N2CCCC(C)(C(=O)NCc3ccccc3C)C2)cc1Cl (stereo not given)
908 | Cc1cc(NS(=O)(=O)c2cc(-c3ccn[nH]3)sc2C)ccc1Br
791 | O=C(NCc1cccs1)c1ccc2c(c1)OCCCO2
741 | CN(C)c1nc2ncn3c(=O)n(CC(=O)Nc4cc(F)cc(F)c4)nc3c2s1
827 | COC(=O)c1nc(NC(=O)Cn2nc3c(cc2=O)CCCC3)sc1-c1ccccc1
1200 | Cc1cc(F)ccc1NS(=O)(=O)c1c(C)sc(C)c1-c1cc(C(F)(F)F)on1
764 | CCc1cc(=O)n(CC(=O)NCc2ccc(F)c(Cl)c2)c(N2CCOCC2)n1
1130 | Cc1sc(-c2nc(C(C)C)cs2)cc1S(=O)(=O)NCc1ccc2c(c1)OCO2
762 | Cc1csc(-c2ccc(N3CCN(C(=O)c4ccsc4)CC3)nc2)n1
728 | COc1ccc(NC(=O)C2CCCN(Cc3nc(-c4cccs4)no3)C2)cc1Cl (stereo not given)
1030 | COc1ccc(OC)c(CNS(=O)(=O)c2cc(-c3nc(C)c(C)s3)sc2C)c1

Reference: the METLIN SMRT retention time set (Domingo-Almenara et al. 2019)
